Source: patent US4226610A, “Herbicidal compounds, preparation thereof and herbicides containing the same” (Meiji Selka Kaisha, Ltd., priority 1978, dated 1980)

Columns and labels:
oak = assay: Experiment 3 foliar application to naturally growing shrubs; assay type: in vivo, Quercus serrata Thunb; settings: after 3 months
In short: (§1)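 Sprays contained 0.1% octylphenyl polyoxyethanol and compound diluted to prescribed concentrations. They were applied to the leaves of wild shrubs at a rate of 150 liter per 10 are. Damage was rated 0–5 after one and three months, and regrowth − to +++ after three months.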

manna grass = assay: Experiment 1 foliar application to naturally growing weeds; assay type: in vivo, Digitaria adsceudes Henr.; settings: for Reproduction-inhibiting effect: 2 months
In short: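 Dilute compounds to prescribed concentrations; add 0.1% octylphenyl polyoxyethanol; spray foliage of in-situ weeds at 150 liter per 10 are. Score killing 0–5 on day 21. Score reproduction (-) to (+++) at month 2 (cockspar grass) or month 4 (chigaya, azumanezasa, warunasubi).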

pond scum = assay: Experiment 7 application to water; assay type: in vivo, Spirogira crassa Kutz.; set-up: scale not given here
Text: (§2) A black soil was packed in 50 cm. square concrete pots and water was poured there-onto at 50 cm. in depth. Hornwort (Ceratophyllum demersum L.), stonewort (Chara Braunii Gmel.) and salvinia (Salvinia natans All.) were transplanted and pond scum (Spirogira crassa Kutz) and diatoms (Bacillariophyta) were floated in the water.
(§3) Then, the compounds of the invention were applied dropwise onto the surface of the water so that the prescribed concentrations in the water are obtained as indicated in Table 9.

progbit = assay: Experiment 6 spray on aquatic plants in concrete pots; assay type: in vivo, Hydrocharis dubia; settings: 3 months
Text: (§4) The detail of the assessment made in the following Experiments of the invention was as follows:
(§5) Four months after treatment, evaluation was made for inhibition of reproduction expressed in terms of symbols ranging from (-) to (+++) where (-) means no reproduction, namely complete suppression of reproduction, (±) remarkable suppression of reproduction; (+) considerable suppression of reproduction; (++) medium supprestion of reproduction; and (+++) no suppression of reproduction.
(§6) A paddy field soil was packed in 50 cm. square concrete pots. omodaka (Sagittaria trifolia L.), urikawa (Sagittaria pygmaea Miq.), prog-bit (Hydrocharis dubia) and aginashi (Sagittaria Aginashi Makino) were transplanted; then water was poured onto the soil at 5 cm. depth.
(§7) Further, water hyacinth, greater-duckweed (Spirodela polyrhiza Schleid.) and duckweed (Lemna paucicostata Hegelm) were floated on the water.
(§8) After one month, the compounds of the invention diluted to the prescribed concentrations as indicated in Table 8 were sprayed in an amount of 100 liter per 10 are. As a surfactant, 0.1% of octylphenyl polyoxyethanol was added thereto.
(§9) The killing index (0, no effect; 5, death) after 21 days and 3 months and the reproduction-inhibiting effect (-, no reproduction; +++, maximum reproduction) after 3 months were determined.

greaterduckweed = assay: as above; assay type: in vivo, Spirodela polyrhiza Sohleid.; settings: for Reproduction-inhibiting effect: 3 months
Text: as §4, §5, §6, §7, §8, §9

water hyacinth = assay: as above; assay type: in vivo, Eichhornia crassipes Solms; settings: for Reproduction-inhibiting effect: 3 months
Text: as §4, §5, §6, §7, §8, §9

hornwort = assay: Experiment 7 application to water; assay type: in vivo, Ceratophyllum demersum L.; set-up: scale not given here
Text: as §2, §3

duckweed = assay: Experiment 6 spray on aquatic plants in concrete pots; assay type: in vivo, Lemna paucicostata Hegelm; settings: for Reproduction-inhibiting effect: 3 months
Text: as §4, §5, §6, §7, §8, §9

stonewort = assay: Experiment 7 application to water; assay type: in vivo, Chara Braunii Gmel.; set-up: scale not given here
Text: as §2, §3

warunasubi = assay: Experiment 1 foliar application to naturally growing weeds; assay type: in vivo, Solanum carolinensis L.; settings: for Reproduction-inhibiting effect: 4 months
In short: (§10)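 Naturally growing weeds receive a foliar spray of compound at prescribed concentrations, 150 liter per 10 are, containing 0.1% octylphenyl polyoxyethanol. Kill is rated 0 (no effect) to 5 (death) after 21 days. Regrowth is rated (-) to (+++) after 4 months, or 2 months for cockspar grass.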

Japanese bush cranberry = assay: Experiment 3 foliar application to naturally growing shrubs; assay type: in vivo, Viburnum dilatatum Thunb.; settings: after 3 months
In short: as §1

omodaka = assay: Experiment 6 spray on aquatic plants in concrete pots; assay type: in vivo, Sagittaria trifolia L.; settings: 3 months
Text: as §4, §5, §6, §7, §8, §9

yamazakura = assay: Experiment 3 foliar application to naturally growing shrubs; assay type: in vivo, Prunus donarium Sieb. var. spontanae Makino; settings: after 3 months
In short: as §1

kiichigo = assay: as above; assay type: in vivo, Rubus palmatsu Thunb. forma coptophyllus Makino; settings: after 3 months
In short: as §1

cockspar grass = assay: Experiment 1 foliar application to naturally growing weeds; assay type: in vivo, Echinochloa Crusgalli P. Beauv.; settings: for Reproduction-inhibiting effect: 2 months
In short: as §10

aginashi = assay: Experiment 6 spray on aquatic plants in concrete pots; assay type: in vivo, Sagittaria Aginashi Makino; settings: 3 months
Text: as §4, §5, §6, §7, §8, §9

diatoms = assay: Experiment 7 application to water; assay type: in vivo, Bacillariophyta; set-up: key: 0: no effect; 5: perfect control
Text: as §2, §3

Japanese prickly ash = assay: Experiment 3 foliar application to naturally growing shrubs; assay type: in vivo, Xanthoxylum piperitum DC.; settings: after 3 months
In short: as §1

urikawa = assay: Experiment 6 spray on aquatic plants in concrete pots; assay type: in vivo, Sagittaria pygmaea Miguel; settings: 3 months
Text: as §4, §5, §6, §7, §8, §9

Q: `C[C@H](NC(=O)[C@H](C)NC(=O)[C@@H](N)CCP(C)(=O)O)C(=O)O` [SF-1293 choline, (L-2-Amino-4-methylphosphinobutyryl)-L-alanyl-L-alanine choline] was tested. Which Reproduction-inhibiting (oak; 0.05%) did it give?
A: Its Reproduction-inhibiting is “++”.

Q: And the Reproduction-inhibiting (oak; 0.1%)?
A: The Reproduction-inhibiting was “-”.

Q: What about the Reproduction-inhibiting (oak; 0.2%) of the same compound?
A: The Reproduction-inhibiting was “-”.

Q: And the Reproduction-inhibiting effect (manna grass; 0.05%)?
A: The Reproduction-inhibiting effect was “+”.

Q: And the Reproduction-inhibiting effect (manna grass; 0.1%)?
A: The Reproduction-inhibiting effect was “±”.

Q: What about the “Killing index of Upperground parts” value (manna grass; 0.1%, 21 days) of the same compound?
A: Its value is 4.5.

Q: What about the Reproduction-inhibiting effect (manna grass; 0.2%) of the same compound?
A: Its Reproduction-inhibiting effect is “-”.

Q: What about the controlling effect (pond scum; 1 ppm, 3 months) of the same compound?
A: Its controlling effect is 1.

Q: What about the controlling effect (pond scum; 1 ppm, 21 days) of the same compound?
A: Its controlling effect is 2.

Q: What about the controlling effect (pond scum; 3 ppm, 3 months) of the same compound?
A: Its controlling effect is 5.

Q: What about the controlling effect (pond scum; 3 ppm, 21 days) of the same compound?
A: Its controlling effect is 3.5.

Q: What about the controlling effect (pond scum; 10 ppm, 3 months) of the same compound?
A: The controlling effect was 5.

Q: And the controlling effect (pond scum; 10 ppm, 21 days)?
A: Its controlling effect is 5.

Q: What about the Reproduction-inhibiting effect (progbit; 0.05%) of the same compound?
A: The Reproduction-inhibiting effect was “++”.

Q: What about the Reproduction-inhibiting effect (progbit; 0.1%) of the same compound?
A: Its Reproduction-inhibiting effect is “±”.

Q: What about the Reproduction-inhibiting effect (progbit; 0.2%) of the same compound?
A: Its Reproduction-inhibiting effect is “-”.

Q: What about the Reproduction-inhibiting effect (greaterduckweed; 0.05%) of the same compound?
A: Its Reproduction-inhibiting effect is “+”.

Q: What about the Reproduction-inhibiting effect (greaterduckweed; 0.1%) of the same compound?
A: The Reproduction-inhibiting effect was “-”.

Q: What about the Killing index (greaterduckweed; 0.1%, 21 days) of the same compound?
A: Its Killing index is 4.5.

Q: And the Reproduction-inhibiting effect (greaterduckweed; 0.2%)?
A: The Reproduction-inhibiting effect was “-”.

Q: And the Reproduction-inhibiting effect (water hyacinth; 0.05%)?
A: Its Reproduction-inhibiting effect is “++”.

Q: And the Reproduction-inhibiting effect (water hyacinth; 0.1%)?
A: The Reproduction-inhibiting effect was “-”.

Q: What about the Killing index (water hyacinth; 0.1%, 21 days) of the same compound?
A: Its Killing index is 4.5.

Q: What about the Reproduction-inhibiting effect (water hyacinth; 0.2%) of the same compound?
A: The Reproduction-inhibiting effect was “-”.

Q: What about the controlling effect (hornwort; 1 ppm, 3 months) of the same compound?
A: Its controlling effect is 1.

Q: What about the controlling effect (hornwort; 1 ppm, 21 days) of the same compound?
A: The controlling effect was 2.

Q: And the controlling effect (hornwort; 3 ppm, 3 months)?
A: Its controlling effect is 5.

Q: And the controlling effect (hornwort; 3 ppm, 21 days)?
A: The controlling effect was 4.

Q: What about the controlling effect (hornwort; 10 ppm, 3 months) of the same compound?
A: The controlling effect was 5.

Q: And the controlling effect (hornwort; 10 ppm, 21 days)?
A: Its controlling effect is 5.

Q: What about the Reproduction-inhibiting effect (duckweed; 0.05%) of the same compound?
A: The Reproduction-inhibiting effect was “+”.

Q: And the Reproduction-inhibiting effect (duckweed; 0.1%)?
A: The Reproduction-inhibiting effect was “-”.

Q: What about the Killing index (duckweed; 0.1%, 21 days) of the same compound?
A: The Killing index was 4.5.

Q: What about the Reproduction-inhibiting effect (duckweed; 0.2%) of the same compound?
A: The Reproduction-inhibiting effect was “-”.

Q: What about the controlling effect (stonewort; 1 ppm, 3 months) of the same compound?
A: Its controlling effect is 2.

Q: And the controlling effect (stonewort; 1 ppm, 21 days)?
A: The controlling effect was 3.

Q: What about the controlling effect (stonewort; 3 ppm, 3 months) of the same compound?
A: Its controlling effect is 5.

Q: What about the controlling effect (stonewort; 3 ppm, 21 days) of the same compound?
A: The controlling effect was 4.

Q: And the controlling effect (stonewort; 10 ppm, 3 months)?
A: Its controlling effect is 5.

Q: What about the controlling effect (stonewort; 10 ppm, 21 days) of the same compound?
A: The controlling effect was 5.

Q: And the Reproduction-inhibiting effect (warunasubi; 0.05%)?
A: The Reproduction-inhibiting effect was “++”.

Q: What about the “Killing index of Upperground parts” value (warunasubi; 0.05%, 21 days) of the same compound?
A: The value was 3.5.

Q: What about the Reproduction-inhibiting effect (warunasubi; 0.1%) of the same compound?
A: The Reproduction-inhibiting effect was “±”.

Q: And the Reproduction-inhibiting effect (warunasubi; 0.2%)?
A: Its Reproduction-inhibiting effect is “-”.

Q: And the Reproduction-inhibiting (Japanese bush cranberry; 0.05%)?
A: Its Reproduction-inhibiting is “++”.

Q: And the Reproduction-inhibiting (Japanese bush cranberry; 0.1%)?
A: Its Reproduction-inhibiting is “-”.

Q: What about the Reproduction-inhibiting (Japanese bush cranberry; 0.2%) of the same compound?
A: Its Reproduction-inhibiting is “-”.

Q: And the Reproduction-inhibiting effect (omodaka; 0.05%)?
A: The Reproduction-inhibiting effect was “++”.

Q: What about the Reproduction-inhibiting effect (omodaka; 0.1%) of the same compound?
A: Its Reproduction-inhibiting effect is “±”.

Q: What about the Reproduction-inhibiting effect (omodaka; 0.2%) of the same compound?
A: Its Reproduction-inhibiting effect is “-”.

Q: And the Reproduction-inhibiting (yamazakura; 0.05%)?
A: Its Reproduction-inhibiting is “++”.

Q: What about the Reproduction-inhibiting (yamazakura; 0.1%) of the same compound?
A: Its Reproduction-inhibiting is “-”.

Q: What about the Reproduction-inhibiting (yamazakura; 0.2%) of the same compound?
A: Its Reproduction-inhibiting is “-”.

Q: And the Reproduction-inhibiting (kiichigo; 0.05%)?
A: The Reproduction-inhibiting was “++”.

Q: What about the Reproduction-inhibiting (kiichigo; 0.1%) of the same compound?
A: The Reproduction-inhibiting was “-”.

Q: And the Reproduction-inhibiting (kiichigo; 0.2%)?
A: Its Reproduction-inhibiting is “-”.

Q: And the Reproduction-inhibiting effect (cockspar grass; 0.05%)?
A: Its Reproduction-inhibiting effect is “+”.

Q: What about the Reproduction-inhibiting effect (cockspar grass; 0.1%) of the same compound?
A: The Reproduction-inhibiting effect was “±”.

Q: And the “Killing index of Upperground parts” value (cockspar grass; 0.1%, 21 days)?
A: Its value is 4.5.

Q: And the Reproduction-inhibiting effect (cockspar grass; 0.2%)?
A: Its Reproduction-inhibiting effect is “-”.

Q: And the Reproduction-inhibiting effect (aginashi; 0.05%)?
A: Its Reproduction-inhibiting effect is “++”.

Q: What about the Reproduction-inhibiting effect (aginashi; 0.1%) of the same compound?
A: The Reproduction-inhibiting effect was “±”.

Q: What about the Reproduction-inhibiting effect (aginashi; 0.2%) of the same compound?
A: Its Reproduction-inhibiting effect is “-”.

Q: What about the controlling effect (diatoms; 1 ppm, 3 months) of the same compound?
A: Its controlling effect is 1.

Q: And the controlling effect (diatoms; 1 ppm, 21 days)?
A: The controlling effect was 2.

Q: And the controlling effect (diatoms; 3 ppm, 3 months)?
A: Its controlling effect is 5.

Q: What about the controlling effect (diatoms; 3 ppm, 21 days) of the same compound?
A: The controlling effect was 3.

Q: And the controlling effect (diatoms; 10 ppm, 3 months)?
A: Its controlling effect is 5.

Q: What about the controlling effect (diatoms; 10 ppm, 21 days) of the same compound?
A: Its controlling effect is 5.

Q: And the Reproduction-inhibiting (Japanese prickly ash; 0.05%)?
A: Its Reproduction-inhibiting is “++”.

Q: And the Killing index (Japanese prickly ash; 0.1%)?
A: The Killing index was 4.5.

Q: And the Reproduction-inhibiting (Japanese prickly ash; 0.1%)?
A: The Reproduction-inhibiting was “±”.

Q: And the Reproduction-inhibiting (Japanese prickly ash; 0.2%)?
A: The Reproduction-inhibiting was “-”.

Q: What about the Reproduction-inhibiting effect (urikawa; 0.05%) of the same compound?
A: Its Reproduction-inhibiting effect is “++”.

Q: And the Reproduction-inhibiting effect (urikawa; 0.1%)?
A: The Reproduction-inhibiting effect was “±”.

Q: And the Reproduction-inhibiting effect (urikawa; 0.2%)?
A: The Reproduction-inhibiting effect was “-”.
